Results on one compound are retold here after patent publication US20260191861A1, “INFLAMMASOME AND VEGF INHIBITION FOR RETINAL VASCULAR DISEASES” (University of Virginia Patent Foundation, priority 2022, published 2026).

This assay has as its system participants with center-involved diabetic macular edema (CI-DME). The assay can be described thus: Randomized clinical trial of oral lamivudine versus placebo in DME: ETDRS best-corrected visual-acuity letter score (VALS). It is filed as in vivo, human. Here is the method: A single center randomized clinical trial was conducted at a tertiary center in São Paulo, Brazil in accordance with the provisions of the Declaration of Helsinki and Good Clinical Practice guidelines. The study was approved by the local institutional review board and study participants provided written informed consent. This study was registered in the Brazilian Registry of Clinical Trials (ReBEC) under the number RBR-87b6r5s. Latinofarma (Brazil) provided the lamivudine and placebo at no cost and also provided funding for bevacizumab which was repackaged in single-used vials by Citopharma (Brazil).
Participants were excluded if they had high-risk proliferative diabetic retinopathy, received any intravitreous injection or laser photocoagulation within the previous 6 months, positive serology for human immunodeficiency virus or hepatitis B virus, or an estimated glomerular rate filtration below 40 mL/min/1.73 m^2 determined with the use of the Cockcroft-Gault equation.
Randomization was performed at the sealed envelope website (https://sealedenvelope.com), in permuted blocks and with stratification according to visual acuity in the study eye. One physician who was not involved with patient assessment was responsible for the randomization and vial delivery to the patients. The study participants, assessing physicians, and OCT technicians were unaware of the treatment group assignment at all visits.
Placebo vials were provided by the same pharmaceutical company responsible for lamivudine production using the same vehicle. The vials were concealed and delivered to the study center. […] At the 4-week visit, participants were administered an intravitreous injection of bevacizumab (1.25 mg in an injection volume of 0.05 ml) in eyes with CI-DME if the best-corrected visual-acuity letter score (VALS) was less than 69 and the retinal central subfield thickness was 325 μm or more. Injection of bevacizumab was performed by the same physician following topical anesthesia, installation of a sterile lid speculum, and application of povidone-iodine drops. No antibiotic was administered after the procedure.
Visual acuity assessment was performed by two certified assessing physicians. The same participant could be assessed by a different physician on each visit. The exam was performed using a back-illuminated 4-meter Early Treatment Diabetic Retinopathy Study (ETDRS) chart. Different ETDRS charts were used to refine the refraction and to assess the right and left eye at each visit. If fewer than 20 letters were correctly identified at 4 meters, testing was also performed at 1 meter adding+0.75 sphere. The refraction was performed without pupil dilation, in the same exam room with a standardized background illumination.
The principal analysis compared lamivudine to placebo. Change in mean VALS from baseline was the primary outcome of interest. We sought to detect a difference of 6 letters in the VALS between groups. This effect size was chosen for power analyses because this change corresponds to a difference of more than 1 line on the ETDRS or Snellen eye charts, the minimal increase in visual acuity judged to be clinically meaningful. By estimating the standard deviation to be 6 letters, we calculated that 16 eyes in each group would provide the trial with 80% power (at a 5% two-sided alpha level) to detect this difference.
To analyze the change in VALS from baseline, a mixed-effects model was employed. Random effects were included in the model to account for subject-specific variability. […] The model's estimates, confidence intervals (CI), and P values were reported for each predictor.
The exams took place at the beginning of the treatment and after 4 weeks of using the medication. At the 4-week return, […] were administered an intravitreous injection of Avastin, one of the standard anti-VEGF treatments for DME. Four weeks after the injection (8 weeks from the start of the study) participants underwent another eye examination. […]

`Nc1ccn([C@@H]2CS[C@H](CO)O2)c(=O)n1` [Lamivudine]: the “Mixed model: change in visual acuity from baseline, Treatment (Lamivudine vs. Placebo), estimate” value (Table 4, weeks 4 and 8) is 11.86. Further, the “Model-based contrast: change in visual acuity, Lamivudine - Placebo” value is, setting by setting: (change from baseline to week 4) 11.86; (change from baseline to week 8) 18.99. For the same compound, the “percentage of eyes with improvement in VALS of 15 or more” value reads like this: (week 4, oral lamivudine) 38%; (week 8, oral lamivudine plus intravitreous bevacizumab at week 4) 56%. In addition, where the note is “week 4, oral lamivudine 150 mg twice daily, before intravitreous bevacizumab”, the “mean change in VALS from baseline” value is 9.8 letters. Moreover, under “week 8, oral lamivudine plus intravitreous bevacizumab 1.25 mg at week 4”, the “mean improvement in VALS from baseline” value was 16.9 letters.
